Among the test systems are A498; A549; CCRF-CEM; DU-145; HCC 2998; HT-29; IGROV-1; KM12; M14; MCF7; MDA-MB-231; Malme-3M; OVCAR-3; RPMI-8226; SF-295; SF-539; SK-MEL-28; SK-MEL-2; SK-MEL-5; UACC-62.
What all share (test): NCI anticancer screen, dose series, 48 h

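Each compound was tested at five concentrations against cells in 96-well plates for 48 hours. GI50: concentration for 50% inhibition of growth.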 Calls of active or inactive are those of the source. Cut-off read from the data, not from the text of the source: active = GI50 up to about 1.1 µM and inactive = higher.

For `Clc1ccc(-c2nc(-c3ccc(Cl)cc3)[s+]s2)cc1`, the GI50 is > 100 µM (inactive) with A498; 39.9 µM (inactive) in the assay with A549; 37 µM (inactive) in the assay with CCRF-CEM; > 100 µM (inactive) in the assay with DU-145; > 100 µM (inactive) in the assay with HCC 2998; 48.1 µM (inactive) with HT-29. For the same compound, the GI50 was 19.7 µM (inactive) with IGROV-1; 42.1 µM (inactive) in the assay on KM12; > 100 µM (inactive) with M14; 37.3 µM (inactive) with MCF7; 46.9 µM (inactive) with MDA-MB-231; 18.7 µM (inactive) in the assay on Malme-3M. Also, the GI50 in the assay with OVCAR-3 was 51.2 µM (inactive); with RPMI-8226 it was 32.6 µM (inactive); in the assay with SF-295 it was > 100 µM (inactive); in the assay with SF-539, 29.7 µM (inactive); in the assay with SK-MEL-28, 59.7 µM (inactive); in the assay on SK-MEL-2 it was > 100 µM (inactive). Also, the GI50 was 47.8 µM (inactive) in the assay on SK-MEL-5 and 52.2 µM (inactive) in the assay with UACC-62.
As for `CC(C(O)c1ccccc1)C(O)(C(F)(F)F)C(F)(F)F` (stereo unspecified), the GI50 in the assay on A498, in the assay on A549, in the assay with CCRF-CEM, in the assay with DU-145, with HCC 2998 and in the assay with HT-29 was > 100 µM (inactive) in each case. For the same compound, the GI50 in the assay with IGROV-1 is 84.5 µM (inactive); with KM12, > 100 µM (inactive); with M14, > 100 µM (inactive); in the assay with MCF7 it was 76.4 µM (inactive); in the assay on MDA-MB-231 it was > 100 µM (inactive); in the assay on Malme-3M it was > 100 µM (inactive). Also, the GI50 in the assay on OVCAR-3, in the assay on RPMI-8226, with SF-295, in the assay with SF-539, in the assay on SK-MEL-28 and in the assay with SK-MEL-2 was > 100 µM (inactive) each time. Also, the results for the GI50 in the assay with SK-MEL-5 and in the assay with UACC-62 were 49.7 µM (inactive) and > 100 µM (inactive), respectively.
On to `O=C(NCCCNCCN1C(=O)c2cccc3cc([N+](=O)[O-])cc(c23)C1=O)c1cc(-c2ccccc2)nc2ccccc12`, for which the GI50 was 4.2 µM (inactive) in the assay on A498; 3.31 µM (inactive) with A549; 0.966 µM (active) in the assay on CCRF-CEM; 5.21 µM (inactive) with DU-145; 1.49 µM (inactive) with HCC 2998; 0.971 µM (active) with HT-29. For the same compound, the GI50 in the assay with IGROV-1 was 2.54 µM (inactive); with KM12 it was 4.4 µM (inactive); in the assay with M14, 1.72 µM (inactive); in the assay with MCF7 it was 2.17 µM (inactive); in the assay on MDA-MB-231 it was 3.01 µM (inactive); with Malme-3M, 1.81 µM (inactive). Also, the GI50 in the assay with OVCAR-3 was 5.87 µM (inactive); in the assay on RPMI-8226 it was 1.13 µM (inactive); in the assay with SF-295 it was 3.08 µM (inactive); with SF-539 it was 1.98 µM (inactive); in the assay with SK-MEL-28, 1.85 µM (inactive); in the assay with SK-MEL-2, 3.31 µM (inactive). Also, the values for the GI50 with SK-MEL-5 and in the assay with UACC-62 were 2.09 µM (inactive) and 5.12 µM (inactive), respectively.
As to `Cc1ccc(F)cc1NC(=O)O/N=C(\Cl)C(C)C`, the GI50 in the assay with A498 is 20 µM (inactive); in the assay on A549, 18.9 µM (inactive); in the assay with CCRF-CEM it was 1.9 µM (inactive); with DU-145, 18.2 µM (inactive); in the assay with HCC 2998 it was 16.2 µM (inactive); in the assay on HT-29 it was 14.6 µM (inactive). For the same compound, the GI50 with IGROV-1 is 17.2 µM (inactive); in the assay on KM12, 16.9 µM (inactive); with M14, 5.22 µM (inactive); in the assay with MCF7, 6.4 µM (inactive); in the assay on MDA-MB-231, 14.1 µM (inactive); in the assay with Malme-3M it was 2.7 µM (inactive). For the same compound, the GI50 in the assay on OVCAR-3 was 6.47 µM (inactive); in the assay on RPMI-8226 it was 2.17 µM (inactive); with SF-295, 28.5 µM (inactive); in the assay on SF-539, 7.21 µM (inactive); in the assay on SK-MEL-28, 15.8 µM (inactive); in the assay with SK-MEL-2 it was 19.1 µM (inactive). Besides, the GI50 in the assay with SK-MEL-5 is 6.97 µM (inactive); in the assay on UACC-62 it was 13.2 µM (inactive).
For `COc1cc2c(cc1OC)C(=O)/C(=C/c1cc(C)c(O)c(C)c1)C2`, the GI50 in the assay with A498 was > 21.2 µM (inactive); in the assay on A549 it was < 0.0165 µM (active); with CCRF-CEM it was < 0.01 µM (active); in the assay on DU-145 it was < 0.01 µM (active); with HCC 2998, < 0.0407 µM (active); in the assay with HT-29 it was 5.19 µM (inactive). Moreover, the GI50 in the assay on IGROV-1 is < 0.0166 µM (active); in the assay with KM12, < 0.01 µM (active); in the assay with M14, < 0.01 µM (active); in the assay with MCF7, < 0.0148 µM (active); with MDA-MB-231, 0.0171 µM (active); with Malme-3M, < 0.01 µM (active). Further, the GI50 in the assay on OVCAR-3 is 0.0115 µM (active); with RPMI-8226 it was < 0.01 µM (active); with SF-295, < 0.018 µM (active); in the assay on SF-539, < 0.01 µM (active); in the assay on SK-MEL-28, > 75.7 µM (inactive); with SK-MEL-2, < 0.01 µM (active). In addition, the GI50 is < 0.01 µM (active) in the assay on SK-MEL-5 and < 0.0168 µM (active) with UACC-62.
For the compound `C#C[C@]1(O)CC[C@H]2[C@@H]3CCC4=C/C(=N\OCCN(CC)CC)CC[C@]4(C)[C@H]3CC[C@@]21C`, the GI50 is 10.8 µM (inactive) in the assay with A498; 5.77 µM (inactive) in the assay with A549; 3.33 µM (inactive) in the assay with CCRF-CEM; 10.4 µM (inactive) in the assay with DU-145; 10.2 µM (inactive) in the assay on HCC 2998; 3.74 µM (inactive) in the assay with HT-29. Also, the GI50 in the assay on IGROV-1 is 3.85 µM (inactive); with KM12 it was 2.92 µM (inactive); in the assay on M14, 3.02 µM (inactive); with MCF7, 4.29 µM (inactive); in the assay on MDA-MB-231, 13.6 µM (inactive); in the assay on Malme-3M it was 3.25 µM (inactive). The GI50 in the assay with OVCAR-3 was 2.87 µM (inactive); in the assay with RPMI-8226 it was 2.53 µM (inactive); in the assay on SF-295, 2.16 µM (inactive); in the assay on SF-539 it was 4.26 µM (inactive); with SK-MEL-28 it was 7.66 µM (inactive); with SK-MEL-2 it was 3.27 µM (inactive). Further, the GI50 is 2.44 µM (inactive) in the assay with SK-MEL-5 and 3.44 µM (inactive) in the assay with UACC-62.
`COC(=O)C(COC(C)=O)NC(=O)/C=C/c1ccc(O)c(OC(C)=O)c1` (stereo unspecified): the GI50 in the assay on A498 is > 100 µM (inactive); in the assay with A549 it was > 100 µM (inactive); with CCRF-CEM, 17.4 µM (inactive); in the assay with DU-145, 58.6 µM (inactive); in the assay on HCC 2998, 63.4 µM (inactive); in the assay on HT-29, 78.2 µM (inactive). Besides, the GI50 in the assay on IGROV-1 was 31.6 µM (inactive); in the assay with KM12, 67.1 µM (inactive); in the assay with M14, > 100 µM (inactive); in the assay on MCF7 it was > 100 µM (inactive); in the assay with MDA-MB-231 it was 30.1 µM (inactive); with Malme-3M, > 100 µM (inactive). Also, the GI50 in the assay with OVCAR-3 was 50.6 µM (inactive); in the assay with RPMI-8226 it was 29.6 µM (inactive); with SF-295, > 100 µM (inactive); in the assay on SF-539 it was 15.1 µM (inactive); in the assay with SK-MEL-28 it was 66.2 µM (inactive); in the assay with SK-MEL-2, > 100 µM (inactive). In addition, the GI50 with SK-MEL-5 and in the assay with UACC-62 was > 100 µM (inactive) in each case.
`COc1ccc(C(C#N)NCCCCCCNC(C#N)c2ccc(OC)cc2)cc1` (stereo unspecified): the GI50 with A498, in the assay on A549, with CCRF-CEM, in the assay with DU-145, in the assay with HCC 2998 and with HT-29 was > 100 µM (inactive) throughout. The GI50 with IGROV-1, with KM12, in the assay with M14, in the assay on MCF7, in the assay on MDA-MB-231 and in the assay on Malme-3M was > 100 µM (inactive) in each case. The GI50 with OVCAR-3, in the assay on RPMI-8226, with SF-295, in the assay with SF-539, with SK-MEL-28 and in the assay with SK-MEL-2 was > 100 µM (inactive) each time. Besides, the GI50 with SK-MEL-5 and in the assay with UACC-62 was > 100 µM (inactive) throughout.
With `COC(=O)c1c2c(cc3c1CC1(Cc4cc5c(c(C)c4C1)CCC5)C3)CCC2` (stereo unspecified), the GI50 in the assay on A498, in the assay on A549, with CCRF-CEM, with DU-145, with HCC 2998 and with HT-29 was > 100 µM (inactive) throughout. For the same compound, the GI50 in the assay on IGROV-1, in the assay on M14, in the assay with MCF7, with MDA-MB-231, in the assay with Malme-3M and in the assay on OVCAR-3 was > 100 µM (inactive) throughout. Also, the GI50 in the assay with RPMI-8226, with SF-295, with SF-539, in the assay on SK-MEL-28, in the assay on SK-MEL-2 and with SK-MEL-5 was > 100 µM (inactive) throughout.
Take `CCOC(=O)C1c2[nH]c3ccccc3c2CCN1C(=O)c1ccc(OC)o1` (stereo unspecified): the GI50 in the assay with A498, with CCRF-CEM, in the assay with DU-145, in the assay with HCC 2998, in the assay on HT-29 and in the assay on IGROV-1 was > 10 µM (inactive) in each case. The GI50 in the assay with KM12 is > 10 µM (inactive); in the assay with M14 it was > 10 µM (inactive); with MCF7 it was > 10 µM (inactive); in the assay with MDA-MB-231, > 10 µM (inactive); with Malme-3M, 1.29 µM (inactive); in the assay with OVCAR-3, > 10 µM (inactive). Further, the GI50 in the assay with RPMI-8226, in the assay with SF-295, in the assay with SF-539, with SK-MEL-28, in the assay with SK-MEL-2 and in the assay with SK-MEL-5 was > 10 µM (inactive) each time.

These data come from ChEMBL document CHEMBL1201862, “PubChem BioAssay data set” (2004).
